# Measured values as given in patent publication US11124758B2, “Bacteria culture medium and applications thereof” (priority 2013, dated 2021).
# Read-outs that look alike come from different tables or passages of the source.
# Assays:
# [1] = test system: E. coli DH5α strain; assay: Shelf life test of antibiotic premixed in culture medium: suppression of E. coli growth after storage; type: cell-based; details: for suppression of growth of E. coli DH5α after storage: 6, 12, 18 and 24 months at 4° C.; for shelf life of culture media containing the antibiotic: 100 μg/ml, LB medium, storage at 4° C.
# [2] = in human body; cited from earlier work
# [3] = less than 25° C.; cited from earlier work
# [4] = 4° C.; cited from earlier work
# [5] = 4° C., cited from earlier work
# [6] = 100 μg/ml or 1 mg/ml in LB liquid and LB agar plate medium, two months of storage at 4° C., incubated overnight at 37° C.
# [7] = 10 mg/ml in LB liquid and LB agar plate medium, three months of storage at 4° C.
# [8] = 100 mg/ml in LB liquid and LB agar plate medium, four months of storage at 4° C.
smiles,measurement,setting,value
CC1(C)S[C@@H]2[C@H](NC(=O)Cc3ccccc3)C(=O)N2[C@H]1C(=O)O.CC1(C)S[C@@H]2[C@H](NC(=O)Cc3ccccc3)C(=O)N2[C@H]1C(=O)O.c1ccc(CNCCNCc2ccccc2)cc1 [benzathine benzylpenicillin],suppression of growth of E. coli DH5α after storage,"[1]; 0.5 and 2.5 mg/ml, LB liquid and LB agar plate medium",able to completely suppress the growth
same,suppression of growth of E. coli DH5α after storage,"[1]; 0.5 and 2.5 mg/ml, SOC liquid and SOC agar plate medium",able to completely suppress the growth
same,duration of medicine effect,[2],3-4 weeks
CC(=O)OCC1=C(C(=O)O)N2C(=O)[C@@H](NC(=O)CSc3ccncc3)[C@H]2SC1.CC(=O)OCC1=C(C(=O)O)N2C(=O)[C@@H](NC(=O)CSc3ccncc3)[C@H]2SC1.c1ccc(CNCCNCc2ccccc2)cc1 [cephapirin benzathine],suppression of growth of E. coli DH5α after storage,"[1]; 0.25 and 1 mg/ml, M9 minimal liquid and agar plate medium",able to completely suppress the growth
same,suppression of growth of E. coli DH5α after storage,"[1]; 0.25 and 1 mg/ml, YT liquid and YT agar plate medium",able to completely suppress the growth
same,time injection suspension can be stored stably,[3],≤ 36 months
CC1(C)S[C@@H]2[C@H](NC(=O)C(C(=O)O)c3ccccc3)C(=O)N2[C@H]1C(=O)O (stereo partly drawn) [carbenicillin],suppression of E. coli growth after storage,[1]; [6],unable to suppress E. coli growth completely
same,shelf life of culture media containing the antibiotic,[1],no more than two
same,suppression of E. coli growth after storage,[1]; [7],unable to suppress E. coli growth completely
same,suppression of E. coli growth after storage,[1]; [8],unable to suppress E. coli growth completely
Cc1onc(-c2ccccc2Cl)c1C(=O)N[C@@H]1C(=O)N2[C@@H]1SC(C)(C)[C@@H]2C(=O)O.Cc1onc(-c2ccccc2Cl)c1C(=O)N[C@@H]1C(=O)N2[C@@H]1SC(C)(C)[C@@H]2C(=O)O.c1ccc(CNCCNCc2ccccc2)cc1 [cloxacillin benzathine],suppression of growth of E. coli DH5α after storage,"[1]; 0.5 and 2.5 mg/ml, YPD liquid and YPD agar plate medium",able to completely suppress the growth
same,suppression of growth of E. coli DH5α after storage,"[1]; 0.5 and 2.5 mg/ml, YT liquid and YT agar plate medium",able to completely suppress the growth
CC1(C)S[C@@H]2[C@H](NC(=O)[C@H](N)c3ccccc3)C(=O)N2[C@H]1C(=O)O [ampicillin],suppression of E. coli growth after storage,[1]; [6],unable to suppress E. coli growth completely
same,shelf life of culture media containing the antibiotic,[1],no more than two
same,suppression of E. coli growth after storage,[1]; [7],unable to suppress E. coli growth completely
same,suppression of E. coli growth after storage,[1]; [8],unable to suppress E. coli growth completely
same,time liquid culture medium and semi-solid agar culture plate medium containing the antibiotic can be kept,[4],about one
same,time in which activity reduces by 10%,[5]; dissolved in glucose injection solution,around 1 hour
same,time in which activity reduces by 10%,[5]; dissolved in water or physiological saline (0.9% sodium chloride),2 to 3 days
CC1(C)S[C@@H]2[C@H](NC(=O)Cc3ccccc3)C(=O)N2[C@H]1C(=O)O.c1ccc(CCNCc2ccccc2)cc1 [benethamine penicillin],suppression of growth of E. coli DH5α after storage,"[1]; 5 and 25 mg/ml, M9 minimal liquid and agar plate medium",able to completely suppress the growth
same,suppression of growth of E. coli DH5α after storage,"[1]; 5 and 25 mg/ml, TB liquid and TB agar plate medium",able to completely suppress the growth
CC1(C)S[C@@H]2[C@H](NC(=O)Cc3ccccc3)C(=O)N2[C@H]1C(=O)O.CCN(CC)CCOC(=O)c1ccc(N)cc1 [procaine penicillin],suppression of growth of E. coli DH5α after storage,"[1]; 10, 40 and 80 mg/ml, LB liquid and LB agar plate medium",able to completely suppress the growth
same,suppression of growth of E. coli DH5α after storage,"[1]; 10, 40 and 80 mg/ml, SOC liquid and SOC agar plate medium",able to completely suppress the growth
same,duration of medicine effect,[2],≤ 48 h
